According to patent publication US20230295115A1, “SUBSTITUTED ISOQUINOLINYLMETHYL AMIDES, ANALOGUES THEREOF, AND METHODS USING SAME” (priority 2020, published 2023):
Like-named read-outs stand apart in the source and are kept apart here.

Test system: HBV rcDNA
Assay: HepDE19 assay with bDNA quantitation of HBV rcDNA
Assay type: cell-based, hepatitis B virus (HBV)
Procedure, shortened: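 HepDE19 cells were switched to tetracycline-free medium and exposed to compound (0.5% DMSO final) for 7 days at 37° C. rcDNA was then quantified by bDNA with an HBV-specific probe set. In parallel, viability was read as ATP content (CellTiter-Glo) after 4 days on replicate plates.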

[1] = HepDE19 cells, 7 day incubation, rcDNA measured by Quantigene 2.0 bDNA assay, top concentration 25 μM; read-out: DE-19bDNA EC50
[2] = read-out: DE-19bDNA EC50; HepDE19 cells, 7 day incubation, rcDNA measured by Quantigene 2.0 bDNA assay, top concentration 25 μM
[3] = Hepatitis B virus, HepDE19, 168 h, HepDE19 cells, 7 day incubation, rcDNA measured by Quantigene 2.0 bDNA assay, top concentration 25 μM; read-out: DE-19bDNA EC50

**Q.** Which EC50 [1] does the source give for `CC(c1cn(C)c(=O)c2cc(F)c(F)cc12)N(C)C(=O)c1cc2c(F)cccn2c1` (single isomer, unassigned) [Compound 172, N-(1-(6,7-difluoro-2-methyl-1-oxo-1,2-dihydroisoquinolin-4-yl)ethyl)-8-fluoro-N-methylindolizine-2-carboxamide] here?
**A.** 90 nM

**Q.** `CC(c1c[nH]c(=O)c2cc(F)c(F)cc12)N(C)C(=O)c1cc2ccccn2c1` (single isomer, unassigned) [Compound 69, N-(1-(6,7-Difluoro-1-oxo-1,2-dihydroisoquinolin-4-yl)ethyl)-N-methylindolizine-2-carboxamide] was tested. Which EC50 [2] did it give?
**A.** 5700 nM

**Q.** For `CC(c1c[nH]c(=O)c2cc(F)c(F)cc12)N(C)C(=O)[C@H]1Cc2ccccc2N1` (single isomer, unassigned) [Compound 22], which EC50 [1] is on record?
**A.** 3700 nM

**Q.** Which EC50 [1] does the source give for `COc1ncc(C(C)N(C)C(=O)[C@@H]2Cc3ccccc3N2)c2cc(F)c(F)cc12` (single isomer, unassigned) [Compound 181] here?
**A.** 290 nM

**Q.** `CC(c1c[nH]c(=O)c2cc(F)c(F)cc12)N(C)C(=O)c1cc2c(F)cc(F)cc2[nH]1` (single isomer, unassigned) [Compound 17, N-(1-(6,7-Difluoro-1-oxo-1,2-dihydroisoquinolin-4-yl)ethyl)-4,6-difluoro-N-methyl-1H-indole-2-carboxamide] was tested. Which EC50 [1] did it give?
**A.** 2500 nM

**Q.** `CC(c1c[nH]c(=O)c2cc(F)c(F)cc12)N(C)C(=O)c1cc2c(Cl)cccn2c1` (single isomer, unassigned) [Compound 78, 8-Chloro-N-(1-(6,7-difluoro-1-oxo-1,2-dihydroisoquinolin-4-yl)ethyl)-N-methylindolizine-2-carboxamide] was tested. Which EC50 [1] did it give?
**A.** 10 nM

**Q.** `CC(c1c[nH]c(=O)c2cc(F)c(F)cc12)N(C)C(=O)c1cc2cccnc2[nH]1` (single isomer, unassigned) [Compound 51, N-(1-(6,7-Difluoro-1-oxo-1,2-dihydroisoquinolin-4-yl)ethyl)-N-methyl-1H-pyrrolo[2,3-b]pyridine-2-carboxamide] was tested. Which EC50 [2] did it give?
**A.** 790 nM

**Q.** Which EC50 [2] does the source give for `COc1ncc(C(C)N(C)C(=O)c2ccc(Br)cc2)c2cc(F)c(F)cc12` (single isomer, unassigned) [Compound 164, 4-Bromo-N-(1-(6,7-difluoro-1-methoxyisoquinolin-4-yl)ethyl)-N-methylbenzamide] here?
**A.** 17200 nM

**Q.** `CC(c1c[nH]c(=O)c2c(F)c(F)ccc12)N(C)C(=O)c1cc2c(F)cccn2c1` (single isomer, unassigned) [Compound 81, N-(1-(7,8-Difluoro-1-oxo-1,2-dihydroisoquinolin-4-yl)ethyl)-8-fluoro-N-methylindolizine-2-carboxamide] was tested. Which EC50 [1] did it give?
**A.** 2100 nM

**Q.** How did the EC50 [1] turn out when `CC(c1c[nH]c(=O)c2cc(F)c(F)cc12)N(C)C(=O)[C@H]1Cc2ccccc2CN1` (single isomer, unassigned) [Compound 33] was run?
**A.** 6600 nM

**Q.** How did the EC50 [1] turn out when `CC(c1c[nH]c(=O)c2cc(F)c(F)cc12)N(C)C(=O)c1cc2ccc(Cl)cn2c1` (single isomer, unassigned) [Compound 110, 6-Chloro-N-(1-(6,7-difluoro-1-oxo-1,2-dihydroisoquinolin-4-yl)ethyl)-N-methylindolizine-2-carboxamide] was run?
**A.** 40 nM

**Q.** How did the EC50 [1] turn out when `CC(c1c[nH]c(=O)c2cc(F)c(F)cc12)N(C)C(=O)C1Nc2ccccc2C1(C)C` (stereo not shown) [Compound 113, N-(1-(6,7-Difluoro-1-oxo-1,2-dihydroisoquinolin-4-yl)ethyl)-N,3,3-trimethylindoline-2-carboxamide] was run?
**A.** ≥ 25000 nM

**Q.** For `CC(c1c[nH]c(=O)c2cc(F)c(F)cc12)N(C)C(=O)[C@@H]1Cc2ccccc2CN1` (single isomer, unassigned) [Compound 19], which EC50 [1] is on record?
**A.** 820 nM

**Q.** How did the EC50 [3] turn out when `CC(c1c[nH]c(=O)c2cc(F)c(F)cc12)N(C)C(=O)c1cc2c(F)c(F)ccc2[nH]1` (racemic) [Compound 29, N-(1-(6,7-Difluoro-1-oxo-1,2-dihydroisoquinolin-4-yl)ethyl)-4,5-difluoro-N-methyl-1H-indole-2-carboxamide] was run?
**A.** 40 nM

**Q.** How did the EC50 [1] turn out when `CC(c1c[nH]c(=O)c2c(F)c(F)ccc12)N(C)C(=O)C1Nc2ccccc2C1(C)C` (stereo not shown) [Compound 106, N-(1-(7,8-Difluoro-1-oxo-1,2-dihydroisoquinolin-4-yl)ethyl)-N,3,3-trimethylindoline-2-carboxamide] was run?
**A.** ≥ 25000 nM

**Q.** For `CC(c1c[nH]c(=O)c2cc(F)c(F)cc12)N(C)C(=O)c1ccc2ccn(C)c2c1` (single isomer, unassigned) [Compound 142, N-(1-(6,7-Difluoro-1-oxo-1,2-dihydroisoquinolin-4-yl)ethyl)-N,1-dimethyl-1H-indole-6-carboxamide], which EC50 [1] is on record?
**A.** 390 nM

**Q.** With `CC(c1c[nH]c(=O)c2cc(F)c(F)cc12)N(C)C(=O)c1cc2ccccn2c1` (single isomer, unassigned) [Compound 70, N-(1-(6,7-Difluoro-1-oxo-1,2-dihydroisoquinolin-4-yl)ethyl)-N-methylindolizine-2-carboxamide] as the molecule, how does the EC50 [3] read?
**A.** 20 nM

**Q.** `CC(c1c[nH]c(=O)c2cc(F)c(F)cc12)N(C)C(=O)c1nc2cc(F)c(F)cc2[nH]1` (single isomer, unassigned) [Compound 50, N-(1-(6,7-Difluoro-1-oxo-1,2-dihydroisoquinolin-4-yl)ethyl)-5,6-difluoro-N-methyl-1H-benzo[d]imidazole-2-carboxamide] was tested. Which EC50 [1] did it give?
**A.** 290 nM

**Q.** With `CC(c1c[nH]c(=O)c2c(F)c(F)ccc12)N(C)C(=O)C1Cc2cc(F)ccc2N1` (stereo not shown) [Compound 73, N-(1-(7,8-Difluoro-1-oxo-1,2-dihydroisoquinolin-4-yl)ethyl)-5-fluoro-N-methylindoline-2-carboxamide] as the molecule, how does the EC50 [1] read?
**A.** 10000 nM

**Q.** `CC(c1c[nH]c(=O)c2cc(F)c(F)cc12)N(C)C(=O)C(=O)Nc1ccc(F)c(Cl)c1` (racemic) [Compound 144, N1-(3-Chloro-4-fluorophenyl)-N2-(1-(6,7-difluoro-1-oxo-1,2-dihydroisoquinolin-4-yl)ethyl)-N2-methyloxalamide] was tested. Which EC50 [3] did it give?
**A.** 1440 nM

**Q.** For `CC(c1c[nH]c(=O)c2cc(F)c(F)cc12)N(C)C(=O)c1ccccc1` (single isomer, unassigned) [Compound 128, N-(1-(6,7-Difluoro-1-oxo-1,2-dihydroisoquinolin-4-yl)ethyl)-N-methylbenzamide], which EC50 [2] is on record?
**A.** > 25000 nM

**Q.** With `CC(c1c[nH]c(=O)c2cc(F)c(F)cc12)N(C)C(=O)c1cc2c([nH]1)CCC(F)(F)C2` (single isomer, unassigned) [Compound 88, N-(1-(6,7-Difluoro-1-oxo-1,2-dihydroisoquinolin-4-yl)ethyl)-5,5-difluoro-N-methyl-4,5,6,7-tetrahydro-1H-indole-2-carboxamide] as the molecule, how does the EC50 [1] read?
**A.** 30 nM

**Q.** How did the EC50 [2] turn out when `CC(c1c[nH]c(=O)c2cc(F)c(F)cc12)N(C)C(=O)c1cc2cccnc2[nH]1` (single isomer, unassigned) [Compound 52, N-(1-(6,7-Difluoro-1-oxo-1,2-dihydroisoquinolin-4-yl)ethyl)-N-methyl-1H-pyrrolo[2,3-b]pyridine-2-carboxamide] was run?
**A.** ≥ 25000 nM

**Q.** Which EC50 [3] does the source give for `C[C@H](c1c[nH]c(=O)c2ccccc12)N(C)C(=O)c1ccc(C(F)(F)F)cc1` [Compound 147, (R)-N-Methyl-N-(1-(1-oxo-1,2-dihydroisoquinolin-4-yl)ethyl)-4-(trifluoromethyl)benzamide] here?
**A.** 160 nM

**Q.** How did the EC50 [1] turn out when `CC(c1c[nH]c(=O)c2cc(F)c(F)cc12)N(C)C(=O)c1cc2c(F)cccc2[nH]1` (single isomer, unassigned) [Compound 8, N-(1-(6,7-Difluoro-1-oxo-1,2-dihydroisoquinolin-4-yl)ethyl)-4-fluoro-N-methyl-1H-indole-2-carboxamide] was run?
**A.** 20 nM

**Q.** For `CC(c1c[nH]c(=O)c2c(F)c(F)ccc12)N(C)C(=O)C1Nc2ccccc2C1(C)C` (stereo not shown) [Compound 105, N-(1-(7,8-Difluoro-1-oxo-1,2-dihydroisoquinolin-4-yl)ethyl)-N,3,3-trimethylindoline-2-carboxamide], which EC50 [1] is on record?
**A.** ≥ 25000 nM

**Q.** For `CC(c1c[nH]c(=O)c2cc(F)c(F)cc12)N(C)C(=O)c1ccc(C(F)(F)F)c(F)c1` (single isomer, unassigned) [Compound 119, N-(1-(6,7-Difluoro-1-oxo-1,2-dihydroisoquinolin-4-yl)ethyl)-3-fluoro-N-methyl-4-(trifluoromethyl) benzamide], which EC50 [1] is on record?
**A.** 4020 nM

**Q.** How did the EC50 [1] turn out when `CC(c1c[nH]c(=O)c2c(F)c(F)ccc12)N(C)C(=O)c1cc2c([nH]1)CCC(F)(F)C2` (single isomer, unassigned) [Compound 90, N-(1-(7,8-Difluoro-1-oxo-1,2-dihydroisoquinolin-4-yl)ethyl)-5,5-difluoro-N-methyl-4,5,6,7-tetrahydro-1H-indole-2-carboxamide] was run?
**A.** 370 nM

**Q.** With `CC(c1c[nH]c(=O)c2cc(F)c(F)cc12)N(CCCO)C(=O)Cc1cc2ccccc2[nH]1` (single isomer, unassigned) [Compound 83, N-(1-(6,7-Difluoro-1-oxo-1,2-dihydroisoquinolin-4-yl)ethyl)-N-(3-hydroxypropyl)-2-(1H-indol-2-yl)acetamide] as the molecule, how does the EC50 [2] read?
**A.** ≥ 25000 nM

**Q.** How did the EC50 [1] turn out when `CCN(C(=O)c1cc2ccccc2[nH]1)C(C)c1c[nH]c(=O)c2cc(F)c(F)cc12` (single isomer, unassigned) [Compound 6, N-(1-(6,7-Difluoro-1-oxo-1,2-dihydroisoquinolin-4-yl)ethyl)-N-ethyl-1H-indole-2-carboxamide] was run?
**A.** 10 nM

**Q.** For `CC(c1c[nH]c(=O)c2cc(F)c(F)cc12)N(C)C(=O)C1Cc2cc(F)ccc2N1` (stereo not shown) [Compound 62, N-(1-(6,7-Difluoro-1-oxo-1,2-dihydroisoquinolin-4-yl)ethyl)-5-fluoro-N-methylindoline-2-carboxamide], which EC50 [1] is on record?
**A.** 190 nM
